# Results from US8664276B2, “Stilbene analogs and methods of treating cancer” (University of Kentucky Research Foundation, priority 2011, dated 2014).
# “Also recorded” adds a separate entry of the source.
# Experiments:
# [1] = test system: Wnt target genes, Axin2 and c-Myc; assay: Western blot of Wnt target proteins in LS174 CRC cells; format: cell-based
# Procedure: Western blot. Western blots were performed using the following antibodies: β-catenin (Sigma, C2206), c-Myc (Epitomics, 1472-1), Axin2 (Cell Signaling, 2151), β-Actin (Sigma, A1978), TCF4 (Epitomics, 2114-1) and pygopus2 (Santa Cruz, sc-74878), Cyclin D1 (Cell signaling, 2926).
# Cyclin B1 levels were decreased, whereas p21^WAF1/CIP1 levels increased, consistent with the fact that p21^WAF1/CIP1 expression is repressed by c-Myc. β-catenin levels were not affected by resveratrol. Next, the mRNA levels of β-catenin target genes were analyzed using RT-PCR. Expression of survivin, Lgr5, CD44, and c-Myc were decreased in resveratrol-treated cells.
# A panel of stilbene analogs was designed and synthesized (FIGS. 2, 3, 5A and 6A). […] However, the solubility of 4d was poor and it was not effective below 10 μM concentrations (data not shown). To improve its solubility and activity, compound 4d was modified with 2′-fluoro 4e, 3′-fluoro 4f and 4′-fluoro 4g substituents (FIG. 5D). Both compounds 4e and 4f had good activity at 10 μM, (E)-4-(2-fluorostyryl)-N,N-dimethylaniline.
# (§1) Western blot and cell proliferation assay. The activity of fluorinated N,N-dialkylaminostilbenes (FIDAS or FIDAS agents) on Wnt signaling activity in cancer cells were analyzed by Western blot with antibodies against Wnt target genes, such as c-Myc, Axin2. The effects of FlDAS agents on cancer cell growth were analyzed using Cell Viability Analyzer (Beckman Coulter, Vi-Cell XR). These assays have been described previously (see Zhang et al., J. of Med. Chem. 54, 1288-1297 (2011)).
# [2] = test system: LS174 CRC cells; assay: CRC cell proliferation assay (Vi-Cell); format: cell-based
# Procedure: Luciferase and cell proliferation assay. HEK293T cells were transiently transfected in a 12-well plate with 0.2 μg of the Super8xTOPFlash reporter and 0.05 μg of Renilla luciferase reporter. Culture medium was changed after 12 h. After 6 h, cells were treated with DMSO or Wnt inhibitors for 12 h, and then treated with 25 mM LiCl or Wnt conditioned medium. After 12 h, cells were harvested and luciferase activity measured by Dual-luciferase Reporter Assay System (Promega, Madison Wis.). All conditions were done in triplicate and each experiment was carried out at least two times. For cell proliferation assay, CRC cells were treated with DMSO or inhibitors for 2d and 4d. The cell numbers and viability were analyzed by Vi-Cell Cell Viability Analyzer.
# as §1
# [3] = test system: LS174 tumor xenografts; assay: LS174 tumor xenograft in nude mice; format: in vivo
# Procedure: Tumor xenograft in nude mice. LS174 or HT29 colon cancer cells (2×10^6) were injected subcutaneously into both flanks of 6-8 week C57BL/6J athymic nude mice as described in Zhang et al., Mol Cell Biol 2006, 26, 2055-2064. Compound 4r or 4dd was dissolved in corn oil or PEG400. The mice were treated with 20 mg/kg/day of 4r by ip injection or gavage (50 μl/mouse). Control mice were treated with same volume of corn oil or PEG400. The body weight and tumor growth were analyzed twice weekly for one month. Tumor size was measured using digital caliper. The tumor volume was calculated by the formula: V=½LW^2 (mm^3).
# In this example, the effects of the stilbene analogs of the present disclosure on CRC cells growth was analyzed. […] To test the effects of compound 4r on tumor growth in vivo, LS174 cells were injected subcutaneously into the flanks of athymic nude mice, which had been randomized into two groups. One group of mice was treated with compound 4r (20 mg/kg/day) dissolved in corn oil by intraperitoneal (ip) injection. The control mice were treated with the same volume of corn oil (50 μL) by ip injection. The mice were weighted and tumors measured twice weekly.
# [4] = target: MAT2A (Homo sapiens, UniProt P31153); assay: Cell based SAM and SAH analysis in LS174 colon cancer cells (LC-MS/MS); design: endogenous in cells; host or cells: LS174T; conditions: 10 μM of 4r versus 30 μM of resveratrol
# Procedure: SAM and SAH analysis by LC-MS/MS. The LC-MS/MS system consisted of two Varian ProStar 210 LC Pumps coupled with a Varian 1200L triple quadrupole mass spectrometer. The separation was performed on a Hypercarb column (50 mm×2.1 mm, […], Thermo Scientific #35003-052130). Gradient elution started with 98% solution A (0.1% formic acid in water), followed by an increase to 38% solution B (0.1% formic acid in acetonitrile) in 8 min. The column was than flushed with 90% B for 5 min and regenerated with 98% A for another 8 min. The flow rate was 0.25 mL/min. Between the 3rd and 11th min, the eluent was switched to the ion source of the mass spectrometer. The precursor product transitions for SAM (m/z 399→250), SAH (m/z 385→250) and [d-4]-SAH (m/z 389→136) were monitored. The optimized ion source parameters were: Capillary Voltage: 32 V for both SAM and SAH, Collision energy: 9 V and 7V for SAM and SAH, respectively, Needle voltage: 5000 V and the Shield voltage: 600V. Nitrogen was used as the drying gas at a temperature of 300° C. and the interface heater was set to 50° C. The drying gas and nebulizing gas were set to 20 and 50 psi, respectively.
# Cell based SAM analysis. […] 5 ul of supernatants were analyzed by LC-MS/MS using a modified method based on a previous publication (see Krijt et al., J Chromatogr B Analyt Technol Biomed Life Sci 877, 2061-6, (2009)). […]
smiles,measurement,setting,value
"CN(C)c1ccc(/C=C/c2c(F)cccc2F)cc1 [4r, (E)-4-(2,6-Difluorostyryl)-N,N-dimethylaniline]",repression of Wnt target genes at 10 μM,"[1]; 10 μM, CRC cells",repress Wnt target genes; also recorded: reduced the protein levels
same,"Wnt inhibitory activity in Western blot, qualitative or relative to a comparator",[1]; CRC cells,more active than compound 4e; also recorded: best activity
same,protein levels of TCF4 and pygopus2,[1]; CRC cells,reduced
same,inhibition of Wnt target genes at 2.5 μM,"[1]; LS174 CRC cells, 2.5 μM",significantly inhibited
same,LS174 cell proliferation at nanomolar concentrations,"[2]; 0.1, 0.3 and 1 μM (FIG. 7A)",inhibited LS174 cell proliferation at nanomolar concentrations
same,CRC cell growth inhibition compared with other compounds,[2]; cell proliferation assay,more potent than compound 4e
same,body weight versus control mice,"[3]; 20 mg/kg/day ip in corn oil, within one month",no significant difference
same,growth of tumor xenografts,"[3]; LS174, 20 mg/kg/day ip in corn oil",significantly inhibited
same,MAT2A activity (SAM levels) in LS174 cells versus resveratrol,[4],more significantly than 30 μM of resveratrol
